# Assay results from US9156811B2 (priority 2008, dated 2015).
# Where a name gives a salt, the structure may show the parent alone.
# Tested on: Trypanosome (T. brucei brucei)
# Assay: In-vitro antitrypanosomal efficacy assay (cell growth, resazurin)
# Type: cell-based
# Details: not given
row,SMILES,ED50 (μM) T. brucei
1,"Cc1nn(C)c(C)c1N(C(F)F)[S+](=O)([O-])c1c(Cl)cc(CCCC2CCNCC2)cc1Cl [DDD100096, 2,6-Dichloro-N-(difluoromethyl)-4-(3-(piperidin-4-yl)propyl)-N-(1,3,5-trimethyl-4H-pyrazol-4-yl)benzenesulfonamide hydrochloride salt]",0.003 µM

# Same assay, conditions: T. brucei brucei, blood stream form, variant 221
row,SMILES,ED50 (μM) T. brucei
1,Cc1nn(C)c(C)c1N(C(F)F)[S+](=O)([O-])c1c(Cl)cc(CCCN2CCCN(C)CC2)cc1Cl [DDD100164],0.001 µM
2,Cc1nn(C)c(C)c1N(C(F)F)[S+](=O)([O-])c1c(Cl)cc(CCCN2CCN(C)CC2)cc1Cl [DDD100086],0.012 µM
3,Cc1nn(C)c(C)c1N(CC(F)F)[S+](=O)([O-])c1c(Cl)cc(CCCCC2CCN(C)CC2)cc1Cl [DDD100159],0.009 µM
4,Cc1nn(C)c(C)c1N(C)[S+](=O)([O-])c1ccc(CCCCCCCCN(C)C)cc1 [DDD100093],0.106 µM

# Same assay, conditions: T. brucei cell growth
row,SMILES,ED50 (μM) T. brucei
1,"Cc1ncccc1N[S+](=O)([O-])c1ccc(-c2cccc(C3CCNCC3)c2)cc1 [DDD88003, 3′-Piperidin-4-yl-biphenyl-4-sulfonic acid (2-methyl-pyridin-3-yl)-amide]",1.9 µM
2,C#CCN(c1c(C)nn(C)c1C)[S+](=O)([O-])c1c(Cl)cc(Br)cc1Cl [DDD85630],>1 µM
3,Cc1nn(C)c(C)c1N[S+](=O)([O-])c1ccc(CCCOC2CCN(C)CC2)cc1 [DDD99820],0.020 µM
4,"Cn1cc(N[S+](=O)([O-])c2c(Cl)cc(-c3ccnc(N4CCNCC4)c3)cc2Cl)cn1 [DDD86478, 2,6-Dichloro-N-(1-methyl-1H-pyrazol-4-yl)-4-(2-piperazin-1-yl-pyridin-4-yl)-benzenesulfonamide]",0.24 µM
5,CCN(CC)Cc1cccc(-c2ccc([S+](=O)([O-])N(C)c3c(CC(C)C)nn(C)c3C)cc2)c1 [DDD88643],0.49 µM
6,CCN(CC)Cc1cccc(-c2cc(Cl)c([S+](=O)([O-])N(C)c3c(C)nn(C)c3C)c(Cl)c2)c1 [DDD88641],0.31 µM
7,Cc1nn(C)c(C)c1N[S+](=O)([O-])c1ccc(NCCCN2CCC(N(C)C)C2)nc1 (stereo not drawn) [DDD86300],1.73 µM
8,"Cc1nn(C)c(C)c1NS(=O)(=O)c1ccc(-c2ccnc(N3CC(C)NC(C)C3)c2)cc1 (stereo not drawn) [DDD87761, 4-[2-(3,5-Dimethyl-piperazin-1-yl)-pyridin-4-yl]-N-(1,3,5-trimethyl-1H-pyrazol-4-yl)-benzenesulfonamide]",0.02 µM
9,"Cn1cc(N[S+](=O)([O-])c2ccc(-c3ccnc(N4CCNCC4)c3)cc2)cn1 [DDD86474, N-(1-Methyl-1H-pyrazol-4-yl)-4-(2-piperazin-1-yl-pyridin-4-yl)-benzenesulfonamide]",0.65 µM
10,Cc1nn(C)c(C)c1N[S+](=O)([O-])c1ccc(N2CCCC(N3CCNCC3)C2)nc1 (stereo not drawn) [DDD87757],0.003 µM
11,Cc1c(N[S+](=O)([O-])c2ccc(-c3cccc(CN(C)C)c3F)cc2)c(CC(C)C)nn1C [DDD99816],0.031 µM
12,Cc1nn(C)c(C)c1N(C)[S+](=O)([O-])c1c(Cl)cc(CCCC2CCNCC2)cc1Cl [DDD90022],0.002 µM
13,Cc1nn(C)c(C)c1N[S+](=O)([O-])c1c(Cl)cc(CCCC2CCN(C)CC2)cc1Cl [DDD88557],0.002 µM
14,"Cc1nn(C)cc1N[S+](=O)([O-])c1c(Cl)cc(-c2ccnc(N3CCNCC3)c2)cc1Cl [DDD86475, 2,6-Dichloro-N-(1,3-dimethyl-1H-pyrazol-4-yl)-4-(2-piperazin-1-yl-pyridin-4-yl)-benzenesulfonamide]",0.003 µM
15,CCN(c1c(C)nn(C)c1C)[S+](=O)([O-])c1c(Cl)cc(CCCN2CCN(C)CC2)cc1Cl [DDD90154],0.023 µM
16,"Cc1nn(C)c(C)c1N[S+](=O)([O-])c1ccc(C#CCN2CCN(C)CC2)cc1 [DDD87999, 4-[3-(4-Methyl-piperazin-1-yl)-prop-1-ynyl]-N-(1,3,5-trimethyl-1H-pyrazol-4-yl)-benzenesulfonamide]",>1 µM
17,Cc1nn(C)c(C)c1N(C)[S+](=O)([O-])c1c(Cl)cc(CCCN2CC(C)NC(C)C2)cc1Cl (stereo not drawn) [DDD99751],0.021 µM
18,Cc1c(N[S+](=O)([O-])c2ccc(-c3cccc(C4CCNCC4)c3)cc2)c(CC(C)C)nn1C [DDD099757],0.061 µM
19,"Cc1nn(C)c(C)c1N[S+](=O)([O-])c1ccc(-c2cccc(CN3CCN(C(=O)OC(C)(C)C)CC3)c2)cc1 [DDD86315, 4-[4′-(1,3,5-Trimethyl-1H-pyrazol-4-ylsulfamoyl)-biphenyl-3-ylmethyl]-piperazine-1-carboxylic acid tert-butyl ester]",>1 µM
20,Cc1nn(C)c(C)c1N(Cc1ccccc1)[S+](=O)([O-])c1c(Cl)cc(Br)cc1Cl [DDD85601],>1 µM
21,"Cc1ncccc1N[S+](=O)([O-])c1ccc(-c2ccnc(N3CCNCC3)c2)cc1 [DDD87994, N-(2-Methyl-pyridin-3-yl)-4-(2-piperazin-1-yl-pyridin-4-yl)-benzenesulfonamide]",0.11 µM
22,"Cc1nn(C)c(C)c1N[S+](=O)([O-])c1ccc(NCCN2CCN(C)CC2)nc1 [DDD85602, 6-[2-(4-Methyl-piperazin-1-yl)-ethylamino]-pyridine-3-sulfonic acid (1,3,5-trimethyl-1 H-pyrazol-4-yl)-amide]",0.63 µM
23,Cc1c(N[S+](=O)([O-])c2ccc(CCCC3CCNCC3)cc2)c(CC(C)C)nn1C [DDD90144],0.034 µM

row,SMILES,ED50 (μM) T. brucei
1,Cc1nn(C)c(C)c1N[S+](=O)([O-])c1ccc(CCCC2CCNCC2)cc1 [DDD99758],0.110 µM
2,COCc1ccccc1-c1cc(Cl)c([S+](=O)([O-])Nc2c(C)nn(C)c2C)c(Cl)c1 [DDD73274],>1 µM
3,Cc1nn(C)c(C)c1N(C)[S+](=O)([O-])c1ccc(CCCCCCN(C)C)cc1 [DDD99753],0.406 µM
4,Cc1nn(C)c(C)c1N(C)[S+](=O)([O-])c1ccc(CCCCCN(C)C)cc1 [DDD90145],1.00 µM
5,"Cc1nn(C)c(C)c1N[S+](=O)([O-])c1ccc(-c2cccc(CCO)c2)cc1 [DDD87751, 3′-(2-Hydroxy-ethyl)-biphenyl-4-sulfonic acid (1,3,5-trimethyl-1H-pyrazol-4-yl)-amide]",>1 µM
6,Cc1nn(C)c(C)c1N[S+](=O)([O-])c1c(Cl)cc(-c2ccc(CN(C)Cc3ccccc3)cc2)cc1Cl [DDD85632],>1 µM
7,Cc1nn(C)c(C)c1N[S+](=O)([O-])c1ccc(CCCCC2CCNCC2)cc1 [DDD99760],0.010 µM
8,CC#CCN(c1c(C)nn(C)c1C)[S+](=O)([O-])c1c(Cl)cc(Br)cc1Cl [DDD85631],>1 µM
9,C=CCN(c1c(C)nn(C)c1C)[S+](=O)([O-])c1c(Cl)cc(Br)cc1Cl [DDD85638],>1 µM
10,"Cc1nn(C)c(C)c1N(C)[S+](=O)([O-])c1c(Cl)cc(-c2ccnc(N3CCNCC3)c2)cc1Cl [DDD88193, 2,6-Dichloro-N-methyl-4-(2-piperazin-1-yl-pyridin-4-yl)-N-(1,3,5-trimethyl-1H-pyrazol-4-yl)-benzenesulfonamide]",0.005 µM
11,"Cc1nn(C)c(C)c1N[S+](=O)([O-])c1ccc(-c2cccc(C3CCNCC3)c2)cc1 [DDD87768, 3′-Piperidin-4-yl-biphenyl-4-sulfonic acid (1,3,5-trimethyl-1H-pyrazol-4-yl)-amide]",0.06 µM
12,"Cc1nn(C)c(C)c1N[S+](=O)([O-])c1ccc(-c2ccnc(N3CCCCC3)c2)cc1 [DDD87749, 4-(3,4,5,6-Tetrahydro-2H-[1,2′]bipyridinyl-4′-yl)-N-(1,3,5-trimethyl-1H-pyrazol-4-yl)-benzenesulfonamide]",1.28 µM
13,Cc1nn(C)c(C)c1N[S+](=O)([O-])c1ccc(NCCN2CCCCC2)nc1 [DDD85635],48.1 µM
14,Cc1nn(C)c(C)c1N[S+](=O)([O-])c1ccc(CCCN2CCNCC2)cc1 [DDD88580],1.13 µM
15,"Cc1nn(C)c(C)c1N[S+](=O)([O-])c1ccc(-c2ccccc2CN2CCN(C)CC2)cc1 [DDD87764, 2′-(4-Methyl-piperazin-1-ylmethyl)-biphenyl-4-sulfonic acid (1,3,5-trimethyl-1H-pyrazol-4-yl)-amide]",>1 µM
16,CCN(c1c(C)nn(C)c1C)[S+](=O)([O-])c1c(Cl)cc(Br)cc1Cl [DDD85637],3.2 µM
17,Cc1nn(C)c(C)c1N[S+](=O)([O-])c1ccc(N2CCC(NC3CCN(Cc4ccccc4)C3)CC2)nc1 (stereo not drawn) [DDD86473],>1 µM
18,"Cc1nn(C)c(C)c1N[S+](=O)([O-])c1ccc(-c2cccc(CNCCN(C)C)c2)cc1 [DDD86316, 3′-[(2-Dimethylamino-ethylamino)-methyl]biphenyl-4-sulfonic acid (1,3,5-trimethyl-1H-pyrazol-4-yl)-amide]",5.0 µM
19,"Cc1nn(C)c(C)c1N[S+](=O)([O-])c1ccc(-c2cc(CN3CCN(C)CC3)cc(OC(C)C)c2)cc1 [DDD88194, 3′-Isopropoxy-5′-(4-methyl-piperazin-1-ylmethyl)-biphenyl-4-sulfonic acid (1,3,5-trimethyl-1H-pyrazol-4-yl)-amide]",2.0 µM
20,Cc1nn(C)c(C)c1N[S+](=O)([O-])c1ccc(-c2ccnc(N3CCNC(C)C3)c2)cc1 (stereo not drawn) [DDD87748],0.001 µM
21,"Cc1noc(C)c1N[S+](=O)([O-])c1ccc(-c2cccc(C3CCNCC3)c2)cc1 [DDD88189, 3′-Piperidin-4-yl-biphenyl-4-sulfonic acid (3,5-dimethyl-isoxazol-4-yl)-amide]",>1 µM
22,"Cc1noc(C)c1N[S+](=O)([O-])c1c(Cl)cc(-c2ccnc(N3CCNCC3)c2)cc1Cl [DDD86468, 2,6-Dichloro-N-(3,5-dimethyl-isoxazol-4-yl)-4-(2-piperazin-1-yl-pyridin-4-yl)-benzenesulfonamide]",0.20 µM
23,"Cc1nn(C)c(C)c1N[S+](=O)([O-])c1c(Cl)cc(C#CCN2CCN(C)CC2)cc1Cl [DDD86469, 2,6-Dichloro-4-[3-(4-methyl-piperazin-1-yl)-prop-1-ynyl]-N-(1,3,5-trimethyl-1H-pyrazol-4-yl)-benzenesulfonamide]",0.55 µM
